This is an account of results in PMC4729137, “Functional analysis of androgen receptor mutations that confer anti-androgen resistance identified in circulating cell-free DNA from prostate cancer patients” (Genome Biology, 2016).

Where a chain is given by its changes, count along the chain named.

Test [1] addresses T1, D880E-AR (Homo sapiens, UniProt P10275, D880E).
T1 sequence (P10275 1-920 D880E): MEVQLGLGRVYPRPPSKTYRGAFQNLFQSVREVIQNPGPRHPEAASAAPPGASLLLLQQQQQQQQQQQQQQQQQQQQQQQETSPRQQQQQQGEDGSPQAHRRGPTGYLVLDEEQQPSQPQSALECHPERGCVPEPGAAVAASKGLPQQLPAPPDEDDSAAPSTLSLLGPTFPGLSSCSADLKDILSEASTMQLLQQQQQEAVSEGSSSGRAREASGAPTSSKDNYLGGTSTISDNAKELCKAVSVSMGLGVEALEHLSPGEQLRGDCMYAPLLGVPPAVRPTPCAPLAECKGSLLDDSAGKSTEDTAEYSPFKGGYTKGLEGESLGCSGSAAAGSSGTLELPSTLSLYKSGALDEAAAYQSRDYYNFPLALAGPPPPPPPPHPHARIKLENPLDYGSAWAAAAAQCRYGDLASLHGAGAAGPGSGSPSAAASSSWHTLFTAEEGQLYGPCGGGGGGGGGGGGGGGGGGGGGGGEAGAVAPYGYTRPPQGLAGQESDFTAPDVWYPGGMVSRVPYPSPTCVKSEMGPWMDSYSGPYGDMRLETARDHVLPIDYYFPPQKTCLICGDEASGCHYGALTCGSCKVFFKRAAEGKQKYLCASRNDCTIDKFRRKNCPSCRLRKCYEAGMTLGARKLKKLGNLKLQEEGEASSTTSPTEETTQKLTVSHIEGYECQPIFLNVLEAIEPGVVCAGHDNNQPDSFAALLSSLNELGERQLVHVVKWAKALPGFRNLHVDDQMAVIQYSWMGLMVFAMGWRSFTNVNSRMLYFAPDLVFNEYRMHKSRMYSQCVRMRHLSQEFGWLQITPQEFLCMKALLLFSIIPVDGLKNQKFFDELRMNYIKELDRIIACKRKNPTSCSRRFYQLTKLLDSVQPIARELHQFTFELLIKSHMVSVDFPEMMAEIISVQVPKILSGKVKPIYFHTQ
Format: cell-based. The settings on record: AR mutant D880E; transfected PC3 cells; 0.1 nM R1881; drug 0 to 50 μM.

The target of test [2] is T2, H875Y/T878A-AR (Homo sapiens, UniProt P10275, H875Y/T878A).
T2 sequence (P10275 1-920 H875Y/T878A): T1 sequence (P10275 1-920 D880E) with H875Y, T878A, E880D
In kind it is cell-based. The note with it: AR mutant H875Y/T878A; transfected PC3 cells; 0.1 nM R1881; drug 0 to 50 μM.

As for `CC(C)(O)C(=O)Nc1ccc([N+](=O)[O-])c(C(F)(F)F)c1` [Hydroxyflutamide, hydroxyflutamide], the “Agonist response to treatment” value is given as “Partial” in test [1] and “Yes” in test [2].
